For assay [1], the target named is T1, Beta-secretase 1 (Homo sapiens, UniProt P56817). The assay is described as follows: Inhibition of BACE1 (unknown origin) after 90 mins by fluorescence assay. The following applies: for pIC50: read-out: IC50.
Assay [2] concerns the target T1, Beta-secretase 1. Description: Inhibition of BACE1 (unknown origin) at 10 uM after 90 mins by fluorescence assay.

The values that follow come from ChEMBL document CHEMBL3400120, “Design, synthesis and biological evaluation of tasiamide B derivatives as BACE1 inhibitors” (Bioorg Med Chem, 2015).

The term pIC50 denotes the IC50 on a negative log10 scale, so that one unit is a factor of ten. By inhibition is commonly meant the relative decrease from the control value, in per cent.

pIC50: −log10 of the molar value. The source made the active and inactive calls. The calls are words filed in the database; no cut-off is given here. Numbered stars: 1 amine (or outer) side, 2 acyl side, 3 side chain; on linkers, the order of the positions; unused ones are H or OH. Square brackets hold non-standard residues; d marks the D form. Peptide text beside a SMILES is read from it. * marks the point of attachment. Ahppa(3S,4S) = O=C(C[C@H](O)[C@H](Cc1ccccc1)N[*:1])[*:2]; dNMeF = CN[C@H](Cc1ccccc1)C(=O)O; NMeQ = CN[C@@H](CCC(N)=O)C(=O)O; Cbz = O=C(OCc1ccccc1)*; Lac = C[C@H](O)C(=O)O Where only a bound is given, the exact number is not on record here.

T1 sequence (P56817 whole entry): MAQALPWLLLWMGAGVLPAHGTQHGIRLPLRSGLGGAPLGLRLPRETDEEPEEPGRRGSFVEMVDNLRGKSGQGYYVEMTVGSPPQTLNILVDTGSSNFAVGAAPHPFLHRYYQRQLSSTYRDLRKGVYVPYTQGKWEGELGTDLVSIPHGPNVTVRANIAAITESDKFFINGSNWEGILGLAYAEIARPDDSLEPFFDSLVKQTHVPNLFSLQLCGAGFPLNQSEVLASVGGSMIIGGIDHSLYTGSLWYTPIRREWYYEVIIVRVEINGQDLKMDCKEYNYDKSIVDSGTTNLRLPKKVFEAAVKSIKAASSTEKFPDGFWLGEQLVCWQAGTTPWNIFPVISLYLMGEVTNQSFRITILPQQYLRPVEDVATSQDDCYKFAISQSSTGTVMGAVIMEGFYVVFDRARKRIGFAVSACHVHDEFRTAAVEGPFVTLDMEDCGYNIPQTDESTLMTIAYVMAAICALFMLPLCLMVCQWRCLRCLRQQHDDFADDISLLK

Turning to `COC(=O)[C@H](CC(C)C)NC(=O)C[C@H](O)[C@H](Cc1ccccc1)NC(=O)[C@H](CCC(N)=O)N(C)C(=O)[C@@H](NC(=O)OCc1ccccc1)C(C)C`, at Beta-secretase 1 [1], the pIC50 is 5.35. Further, at Beta-secretase 1 [2], the inhibition amounted to 75%.

Take `CC(C)C[C@H](NC(=O)C[C@H](O)[C@H](Cc1ccccc1)NC(=O)[C@H](CCC(N)=O)N(C)C(=O)[C@@H](NC(=O)[C@H](C)O)C(C)C)C(=O)N[C@@H](C)C(=O)N(C)[C@H](Cc1ccccc1)C(=O)O` (H-[Lac]V[NMeQ][Ahppa(3S,4S)]LA[dNMeF]-OH): the pIC50 at Beta-secretase 1 [1] is 7.11.

With `CCCN(CCC)C(=O)c1cccc(C(=O)N[C@@H](Cc2ccccc2)[C@@H](O)CC(=O)N[C@@H](CC(C)C)C(=O)N[C@@H](C)C(=O)N(C)[C@H](Cc2ccccc2)C(=O)OCc2ccccc2)c1`, the pIC50 at Beta-secretase 1 [1] was 6.00. This compound yielded an inhibition against Beta-secretase 1 [2] of 89.4%.

As to `CC(C)C[C@H](NC(=O)C[C@H](O)[C@H](Cc1ccccc1)NC(=O)c1cccc(C(=O)N2CCCC2=O)c1)C(=O)N[C@@H](C)C(=O)N(C)[C@H](Cc1ccccc1)C(=O)OCc1ccccc1`, the pIC50 on Beta-secretase 1 [1] was < 5.00. The compound further yielded an inhibition at Beta-secretase 1 [2] of 28.4%.

As to `CC(C)C[C@H](NC(=O)C[C@H](O)[C@H](Cc1ccccc1)NC(=O)OC(C)(C)C)C(=O)N[C@@H](C)C(=O)N(C)[C@H](Cc1ccccc1)C(=O)O`, the pIC50 on Beta-secretase 1 [1] is < 5.00. In addition, the inhibition against Beta-secretase 1 [2] stood at 41.7%.

On to `COC(=O)[C@H](C)NC(=O)[C@H](CC(C)C)NC(=O)C[C@H](O)[C@H](Cc1ccccc1)NC(=O)[C@H](CCC(N)=O)N(C)C(=O)OCc1ccccc1`, for which, at Beta-secretase 1 [1], the pIC50 was < 5.00. In addition, the inhibition against Beta-secretase 1 [2] turned out to be 17.5%.

For the compound `COC(=O)C[C@H](O)[C@H](Cc1ccccc1)NC(=O)[C@H](CCC(N)=O)N(C)C(=O)[C@@H](NC(=O)OCc1ccccc1)C(C)C`, at Beta-secretase 1 [1], the pIC50 was < 5.00. Moreover, at Beta-secretase 1 [2], the inhibition is 22.1%.

Turning to `CCCN(CCC)C(=O)c1cccc(C(=O)N[C@@H](Cc2ccccc2)[C@@H](O)CC(=O)N[C@@H](CC(C)C)C(=O)N[C@@H](C)C(=O)N(C)[C@H](Cc2ccccc2)C(=O)O)n1`, at Beta-secretase 1 [1], the pIC50 was < 5.00. Further, the inhibition on Beta-secretase 1 [2] was determined as 35%.

With `CC(C)C[C@H](NC(=O)C[C@H](O)[C@H](Cc1ccccc1)NC(=O)OC(C)(C)C)C(=O)N[C@@H](C)C(=O)N(C)[C@H](Cc1ccccc1)C(=O)OCc1ccccc1`, the pIC50 on Beta-secretase 1 [1] was < 5.00. Further, the inhibition against Beta-secretase 1 [2] came to 4.44%.

As to `COC(=O)[C@H](CC(C)C)NC(=O)C[C@H](O)[C@H](Cc1ccccc1)NC(=O)OC(C)(C)C`, on Beta-secretase 1 [1], the pIC50 is < 5.00. Further, the inhibition on Beta-secretase 1 [2] stood at 25.8%.

Regarding `COC(=O)[C@H](C)NC(=O)[C@H](CC(C)C)NC(=O)C[C@H](O)[C@H](Cc1ccccc1)NC(=O)OC(C)(C)C`, the pIC50 at Beta-secretase 1 [1] is < 5.00. In addition, on Beta-secretase 1 [2], the inhibition stood at 11.6%.

On to `CCCN(CCC)C(=O)c1cccc(C(=O)N[C@@H](Cc2ccccc2)[C@@H](O)CC(=O)N[C@@H](CC(C)C)C(=O)N[C@@H](C)C(=O)N(C)[C@H](Cc2ccccc2)C(=O)OCc2ccccc2)n1`, for which the pIC50 at Beta-secretase 1 [1] was < 5.00. In addition, the inhibition at Beta-secretase 1 [2] stood at 28.7%.

Take `COC(=O)C[C@H](O)[C@H](Cc1ccccc1)NC(=O)[C@H](CCC(N)=O)N(C)C(=O)OCc1ccccc1`: the IC50 result at Beta-secretase 1 [1] is reported as “Not Active”. In addition, the inhibition entry on Beta-secretase 1 [2] was “inactive”.

With `CC(C)C[C@H](NC(=O)C[C@H](O)[C@H](Cc1ccccc1)NC(=O)c1cccc(C(=O)N2CCCC2=O)c1)C(=O)N[C@@H](C)C(=O)N(C)[C@H](Cc1ccccc1)C(=O)O`, the pIC50 at Beta-secretase 1 [1] is < 5.00. For the same compound, the inhibition on Beta-secretase 1 [2] came to 35.1%.

For `CC(C)C[C@H](NC(=O)C[C@H](O)[C@H](Cc1ccccc1)NC(=O)[C@@H](N)Cc1cc2ccccc2[nH]1)C(=O)N[C@@H](C)C(=O)N(C)[C@H](Cc1ccccc1)C(=O)OCc1ccccc1`, the pIC50 at Beta-secretase 1 [1] was < 5.00. Besides, the inhibition against Beta-secretase 1 [2] was 33.9%.

On to `CCCN(CCC)C(=O)c1cccc(C(=O)N[C@@H](Cc2ccccc2)[C@@H](O)CC(=O)N[C@@H](CC(C)C)C(=O)N[C@@H](C)C(=O)N(C)[C@H](Cc2ccccc2)C(=O)O)c1`, for which, at Beta-secretase 1 [1], the pIC50 was 6.32. On Beta-secretase 1 [2], this compound returned an inhibition of 97.2%.

As to `COC(=O)[C@@H](Cc1ccccc1)N(C)C(=O)[C@H](C)NC(=O)[C@H](CC(C)C)NC(=O)C[C@H](O)[C@H](Cc1ccccc1)NC(=O)[C@H](CCC(N)=O)N(C)C(=O)[C@@H](NC(=O)OCc1ccccc1)C(C)C`, at Beta-secretase 1 [1], the pIC50 is 6.06. This compound also returned an inhibition at Beta-secretase 1 [2] of 97%.

On to `COC(=O)[C@@H](Cc1ccccc1)N(C)C(=O)[C@H](C)NC(=O)[C@H](CC(C)C)NC(=O)C[C@H](O)[C@H](Cc1ccccc1)NC(=O)[C@H](CCC(N)=O)N(C)C(=O)OCc1ccccc1`, for which the pIC50 at Beta-secretase 1 [1] is < 5.00. On Beta-secretase 1 [2], this compound registered an inhibition of 49.5%.

As for `COC(=O)[C@H](CC(C)C)NC(=O)C[C@H](O)[C@H](Cc1ccccc1)NC(=O)[C@H](CCC(N)=O)N(C)C(=O)OCc1ccccc1`, the pIC50 at Beta-secretase 1 [1] is < 5.00. Moreover, the inhibition against Beta-secretase 1 [2] came to 24.2%.

Take `COC(=O)[C@H](C)NC(=O)[C@H](CC(C)C)NC(=O)C[C@H](O)[C@H](Cc1ccccc1)NC(=O)[C@H](CCC(N)=O)N(C)C(=O)[C@@H](NC(=O)OCc1ccccc1)C(C)C` (Cbz-V[NMeQ][Ahppa(3S,4S)]LA-OMe): on Beta-secretase 1 [1], the pIC50 is 5.58. This compound yielded an inhibition at Beta-secretase 1 [2] of 90.6%.
